Assay results from PubChem BioAssay AID330 (DTP/NCI, 2004).
Values joined by “and” are separate entries in the source; they are usually repeats but may differ in a detail not shown here. Equal entries are not always repeated. Inconclusive results and toxic doses are left out. How the source made its calls: active means survival T/C of 150% or more; inactive means T/C below 125% in these data. Square brackets hold non-standard residues; d marks the D form. Peptide text beside a SMILES is read from it. * marks the point of attachment. ξ: configuration not given here. ξAsp(βξ-Me) = CC(C(=O)O)C(N)C(=O)O; X11 = CC(N*)C1NC(=O)C2CCCCN2C1=O; ξAbu(3ξ-NH2) = CC(N)C(N)C(=O)O; X10 = CCC(C)CCC/C=C/CC(=O)*

Tested on: P388 leukemia ip, CD2F1 mice, survival T/C
Assay: NCI In Vivo Anticancer Drug Screen. Data for tumor model P388 Leukemia (intraperitoneal) in CD2F1 (CDF1) mice
Conditions: endpoint: median survival time, higher = longer survival
Outline: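 Mice carrying the transplanted tumor received test compound or vehicle. Survival was recorded in each group, and the value is the treated-group measurement divided by that of the vehicle-treated control group.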

[1] = dose: 100.0 mg/kg/injection, schedule: Q04DX002 (ip), vehicle: saline
[2] = dose: 50.0 mg/kg/injection, schedule: Q01DX005 (ip), vehicle: Klucel (hydroxypropylcellulose) (HPC)
[3] = dose: 100.0 mg/kg/injection, schedule: Q01DX005 (ip), vehicle: Klucel (hydroxypropylcellulose) (HPC)
[4] = dose: 200.0 mg/kg/injection, schedule: Q01DX005 (ip), vehicle: Klucel (hydroxypropylcellulose) (HPC)
[5] = dose: 50.0 mg/kg/injection, schedule: Q01DX005 (ip), vehicle: saline
[6] = dose: 100.0 mg/kg/injection, schedule: Q01DX005 (ip), vehicle: saline
[7] = dose: 50.0 mg/kg/injection, schedule: Q01DX009 (ip), vehicle: saline
[8] = dose: 100.0 mg/kg/injection, schedule: Q01DX009 (ip), vehicle: saline
[9] = dose: 200.0 mg/kg/injection, schedule: Q01DX009 (ip), vehicle: saline
[10] = dose: 60.0 mg/kg/injection, schedule: Q01DX005 (ip), vehicle: saline with Tween-80
[11] = dose: 120.0 mg/kg/injection, schedule: Q01DX005 (ip), vehicle: saline with Tween-80
[12] = dose: 240.0 mg/kg/injection, schedule: Q01DX005 (ip), vehicle: saline with Tween-80

Measured: T/C

COc1nc(N)c2cnn(C3CCCCO3)c2n1 (stereo not given)
inactive: dose: 100.0 mg/kg/injection, schedule: Q04DX002 (ip), vehicle: saline with Tween-80 99 % of control | dose: 200.0 mg/kg/injection, schedule: Q04DX002 (ip), vehicle: saline with Tween-80 96 % of control | dose: 400.0 mg/kg/injection, schedule: Q04DX002 (ip), vehicle: saline with Tween-80 101 % of control

COc1ccc(Cl)[n+]([O-])n1
inactive: dose: 6.25 mg/kg/injection, schedule: Q04DX002 (ip), vehicle: Klucel (hydroxypropylcellulose) (HPC) 111 % of control | dose: 12.5 mg/kg/injection, schedule: Q04DX002 (ip), vehicle: Klucel (hydroxypropylcellulose) (HPC) 122 % of control | dose: 25.0 mg/kg/injection, schedule: Q04DX002 (ip), vehicle: Klucel (hydroxypropylcellulose) (HPC) 120 % of control | dose: 25.0 mg/kg/injection, schedule: Q04DX002 (ip), vehicle: saline 104 % of control | dose: 50.0 mg/kg/injection, schedule: Q04DX002 (ip), vehicle: Klucel (hydroxypropylcellulose) (HPC) 117 % of control | dose: 50.0 mg/kg/injection, schedule: Q04DX002 (ip), vehicle: saline 122 % of control | [1] 106 % of control

C(CCC[Si]12OCCN(CCO1)CCO2)CC[Si]12OCCN(CCO1)CCO2
inactive: [2] 102 % of control | [3] 93 % of control | [4] 91 % of control

CC(C)(C)C(N)=S=O
inactive: [5] 101 % of control | [6] 106 % of control | dose: 200.0 mg/kg/injection, schedule: Q01DX005 (ip), vehicle: saline 106 % of control

c1ccc2cc(SCCCN3CCOCC3)ccc2c1
inactive: dose: 50.0 mg/kg/injection, schedule: Q01DX009 (ip), vehicle: saline sonified 100 % of control | dose: 100.0 mg/kg/injection, schedule: Q01DX009 (ip), vehicle: saline sonified 104 % of control | dose: 200.0 mg/kg/injection, schedule: Q01DX009 (ip), vehicle: saline sonified 100 % of control

COc1cc2c(-c3c4c5c(cc(OC)c(OC)c5c5cc(OC)c(OC)cc35)CCN4C)c3c4c(cc(OC)c(OC)c4c2cc1OC)CCN3C
inactive: [1] 101 % of control | dose: 200.0 mg/kg/injection, schedule: Q04DX002 (ip), vehicle: saline 102 % of control | dose: 400.0 mg/kg/injection, schedule: Q04DX002 (ip), vehicle: saline 101 % of control

CN(C)CCNC(=O)c1ccc(C(=O)NCCN(C)C)c2c(C(=O)NCCN(C)C)ccc(C(=O)NCCN(C)C)c12
inactive: dose: 1.56 mg/kg/injection, schedule: Q01DX005 (ip), vehicle: saline with Tween-80 100 % of control | dose: 3.13 mg/kg/injection, schedule: Q01DX005 (ip), vehicle: saline with Tween-80 106 % of control | dose: 6.25 mg/kg/injection, schedule: Q01DX005 (ip), vehicle: saline with Tween-80 102 % of control and 109 % of control | dose: 12.5 mg/kg/injection, schedule: Q01DX005 (ip), vehicle: saline with Tween-80 108 % of control

CCOC(=O)CCC[n+]1cccc(C#N)c1
inactive: dose: 31.25 mg/kg/injection, schedule: Q01DX005 (ip), vehicle: Klucel (hydroxypropylcellulose) (HPC) 101 % of control | dose: 62.5 mg/kg/injection, schedule: Q01DX005 (ip), vehicle: Klucel (hydroxypropylcellulose) (HPC) 103 % of control | dose: 125.0 mg/kg/injection, schedule: Q01DX005 (ip), vehicle: Klucel (hydroxypropylcellulose) (HPC) 96 % of control

CCOC(=O)CS(=O)(=O)CCCCCCS(=O)(=O)CC(=O)OCC
inactive: [7] 103 % of control | [8] 91 % of control | [9] 94 % of control

Cc1ccc(SSc2ccc(C(C)(C)C)cc2)cc1
inactive: [2] 97 % of control | [3] 102 % of control | [4] 99 % of control

CC(C)OCc1cn[nH]n1
inactive: [10] 100 % of control | [11] 97 % of control | [12] 103 % of control

CCC(C)CCC/C=C/CC(=O)NC(CC(=O)O)C(=O)NC(C(=O)NC(CC(=O)O)C(=O)NCC(=O)NC(CC(=O)O)C(=O)NCC(=O)NC(C(=O)NC(C(=O)N1CCCC1C(=O)NC(C)C1NC(=O)C2CCCCN2C1=O)C(C)C)C(C)N)C(C)C(=O)O (stereo not drawn) (X10-D[ξAsp(βξ-Me)]DGDG[ξAbu(3ξ-NH2)]VP-X11; configuration not given here)
inactive: dose: 25.0 mg/kg/injection, schedule: Q01DX009 (ip), vehicle: saline + alcohol 103 % of control | dose: 50.0 mg/kg/injection, schedule: Q01DX009 (ip), vehicle: saline + alcohol 103 % of control | dose: 100.0 mg/kg/injection, schedule: Q01DX009 (ip), vehicle: saline + alcohol 107 % of control and 88 % of control

Sc1ccccc1N=Cc1ccc(C=Nc2ccccc2S)cc1
inactive: [7] 98 % of control | [8] 99 % of control | [9] 97 % of control

Cc1c(-c2ccc(Cl)cc2)n[nH]c1-c1[nH]nc(-c2ccc(Cl)cc2)c1C
inactive: [10] 105 % of control | [11] 105 % of control | [12] 94 % of control

CCCCCC1SCC(=O)N1c1nncs1 (stereo not given)
inactive: [10] 106 % of control | [11] 103 % of control | [12] 113 % of control

C[Si](C)(C)CC[Si]12OCCN(CCO1)CCO2
inactive: [2] 106 % of control | [3] 104 % of control | [4] 92 % of control

NC(=S)c1ccc(N=Cc2ccccc2)cc1
inactive: dose: 12.5 mg/kg/injection, schedule: Q01DX001 (ip), vehicle: Klucel (hydroxypropylcellulose) (HPC) 101 % of control | dose: 25.0 mg/kg/injection, schedule: Q01DX001 (ip), vehicle: Klucel (hydroxypropylcellulose) (HPC) 101 % of control | dose: 50.0 mg/kg/injection, schedule: Q01DX001 (ip), vehicle: Klucel (hydroxypropylcellulose) (HPC) 95 % of control

NCC(O)c1cccc(O)c1 (stereo not given)
inactive: dose: 6.25 mg/kg/injection, schedule: Q01DX009 (ip), vehicle: saline 101 % of control and 92 % of control | dose: 12.5 mg/kg/injection, schedule: Q01DX009 (ip), vehicle: saline 101 % of control and 95 % of control | dose: 25.0 mg/kg/injection, schedule: Q01DX009 (ip), vehicle: saline 100 % of control

Cc1ccc(NC(=O)Oc2ccc(C(C)(C)C)cc2Br)c([N+](=O)[O-])c1
inactive: dose: 50.0 mg/kg/injection, schedule: Q01DX009 (ip), vehicle: saline with Tween-80 96 % of control | dose: 100.0 mg/kg/injection, schedule: Q01DX009 (ip), vehicle: saline with Tween-80 97 % of control | dose: 200.0 mg/kg/injection, schedule: Q01DX009 (ip), vehicle: saline with Tween-80 101 % of control

CCCCOc1ccc(C(=S)NC(=O)Nc2ccccc2)cc1
inactive: dose: 3.0 mg/kg/injection, schedule: Q01DX009 (ip), vehicle: saline with Tween-80 123 % of control | dose: 6.0 mg/kg/injection, schedule: Q01DX009 (ip), vehicle: saline with Tween-80 103 % of control | dose: 12.0 mg/kg/injection, schedule: Q01DX009 (ip), vehicle: saline with Tween-80 98 % of control

O=C(O)c1ccc(NC(=S)NNC(=O)c2ccncc2)cc1
inactive: dose: 100.0 mg/kg/injection, schedule: Q04DX002 (ip), vehicle: Klucel (hydroxypropylcellulose) (HPC) 99 % of control | dose: 200.0 mg/kg/injection, schedule: Q04DX002 (ip), vehicle: Klucel (hydroxypropylcellulose) (HPC) 102 % of control | dose: 400.0 mg/kg/injection, schedule: Q04DX002 (ip), vehicle: Klucel (hydroxypropylcellulose) (HPC) 100 % of control

CCOP(=O)(NCCCOC)OCC
inactive: dose: 25.0 mg/kg/injection, schedule: Q01DX005 (ip), vehicle: saline 97 % of control | [5] 100 % of control | [6] 99 % of control

CC(C)=CCCC(=O)Cc1nc2nnc(N)n2nc1CC(=O)CCC=C(C)C
inactive: dose: 60.0 mg/kg/injection, schedule: Q01DX005 (ip), vehicle: saline 100 % of control | dose: 120.0 mg/kg/injection, schedule: Q01DX005 (ip), vehicle: saline 98 % of control | dose: 240.0 mg/kg/injection, schedule: Q01DX005 (ip), vehicle: saline 104 % of control

COc1cc2c(cc1C(C)c1ccc(F)cc1)OCO2 (stereo not given)
inactive: dose: 50.0 mg/kg/injection, schedule: Q01DX005 (ip), vehicle: saline with Tween-80 98 % of control | dose: 100.0 mg/kg/injection, schedule: Q01DX005 (ip), vehicle: saline with Tween-80 100 % of control | dose: 200.0 mg/kg/injection, schedule: Q01DX005 (ip), vehicle: saline with Tween-80 107 % of control

O=C1NC(=O)C(CCO)(c2ccccc2)C(=O)N1
inactive: [10] 88 % of control | [11] 105 % of control | [12] 100 % of control
